Laboratory results: US20100285959A1, “HERBICIDAL MIXTURES” (priority 2006, published 2010)

What was measured:
[1] = test system: corn (ZEAMD); test: Test 5 field trial, postemergence; format: in vivo, Zea mays ssp. indentata; settings: atrazine 1120, glufosinate 470 or glyphosate 1120 g a.i./ha alone
Source text: (§1) Corn seeds (hybrid ‘Pioneer 38H69’) were planted in mid spring season, 5.1 cm deep in a silty clay loam soil having 3% organic matter and a pH of 6.5. Plots were 9.1 m long by 3.0 m wide with rows spaced 76 cm apart. The field was managed using conventional tillage practices. […] All treatments included a surfactant except glufosinate treatments, both alone and in combination. […] Results are summarized in Table 5 and are the means of the three replicates.

[2] = test system: corn (ZEAMD); test: Test 6 field trial, postemergence; format: in vivo, Zea mays ssp. indentata; settings: 470 g a.i./ha
Source text: (§2) Corn seeds (hybrid ‘Pioneer 35Y62’) were planted in mid spring season, 3.8 cm deep in a silt loam soil having 4% organic matter and a pH of 5.8. Plots were 10.7 m long by 1.5 m wide with rows spaced 76 cm apart. Seeds were spaced 18 cm apart within the rows. The field was managed using conventional tillage practices. […] All treatments included a surfactant except glufosinate treatments, both alone and in combination. […] Results are summarized in Table 6 and are the means of the three replicates.

[3] = test system: giant foxtail (SETFA); test: Test 5 field trial, postemergence; format: in vivo, Setaria faberi; settings: atrazine 1120, glufosinate 470 or glyphosate 1120 g a.i./ha alone
Source text: as §1

[4] = test system: Pennsylvania smartweed (POLPY); test: Test 6 field trial, postemergence; format: in vivo, Polygonum pensylvanicum; settings: 470 g a.i./ha
Source text: as §2

[5] = test system: large crabgrass (DIGSA); test: Test 5 field trial, postemergence; format: in vivo, Digitaria sanguinalis; settings: atrazine 1120, glufosinate 470 or glyphosate 1120 g a.i./ha alone
Source text: as §1

[6] = test system: shepherd's purse (CAPBP); test: Test 5 field trial, postemergence; format: in vivo, Capsella bursa-pastoris; settings: atrazine 1120, glufosinate 470 or glyphosate 1120 g a.i./ha alone
Source text: as §1

[7] = test system: common lambsquarters (CHEAL); test: Test 6 field trial, postemergence; format: in vivo, Chenopodium album; settings: 470 g a.i./ha
Source text: as §2

[8] = test system: yellow foxtail (SETLU); test: Test 6 field trial, postemergence; format: in vivo, Setaria glauca; settings: 470 g a.i./ha
Source text: as §2

[9] = test system: giant foxtail (SETFA); test: Test 6 field trial, postemergence; format: in vivo, Setaria faberi; settings: 470 g a.i./ha
Source text: as §2

[10] = test system: velvetleaf (ABUTH); test: Test 6 field trial, postemergence; format: in vivo, Abutilon theophrasti; settings: 470 g a.i./ha
Source text: as §2

[11] = test system: velvetleaf (ABUTH); test: Test 5 field trial, postemergence; format: in vivo, Abutilon theophrasti; settings: atrazine 1120, glufosinate 470 or glyphosate 1120 g a.i./ha alone
Source text: as §1

[12] = test system: common lambsquarters (CHEAL); test: Test 5 field trial, postemergence; format: in vivo, Chenopodium album; settings: atrazine 1120, glufosinate 470 or glyphosate 1120 g a.i./ha alone
Source text: as §1

[13] = test system: redroot pigweed (AMARE); test: Test 6 field trial, postemergence; format: in vivo, Amaranthus retroflexus; settings: 470 g a.i./ha
Source text: as §2

[14] = test system: common ragweed (AMBEL); test: Test 5 field trial, postemergence; format: in vivo, Ambrosia artemisiifolia; settings: atrazine 1120, glufosinate 470 or glyphosate 1120 g a.i./ha alone
Source text: as §1

[15] = test system: field pennycress (THLAR); test: Test 5 field trial, postemergence; format: in vivo, Thlaspi arvense; settings: atrazine 1120, glufosinate 470 or glyphosate 1120 g a.i./ha alone
Source text: as §1

[16] = test system: yellow foxtail (SETLU); test: Test 5 field trial, postemergence; format: in vivo, Setaria glauca; settings: atrazine 1120, glufosinate 470 or glyphosate 1120 g a.i./ha alone
Source text: as §1

[17] = test system: barley (HORVX); test: Test 30 growth chamber, postemergence; format: in vivo, Hordeum vulgare
Procedure: (§3) A growth chamber test was conducted to evaluate the effects on the plant species wheat (TRZAW, Triticum aestivum L.) and barley (HORVX, Hordeum vulgare L.) with mixtures of Compound 1 and Compound 2 with glycerol. Wheat and barley seeds were planted in a sandy loam soil having 0.9% organic matter and a pH of 6.3. […] Wheat and barley plants were treated postemergence at the two leaf growth stage for Compound 1 and at the three leaf growth stage for Compound 2. Each treatment was replicated one time. […] Plants were watered as needed. […] Colby's Equation was used to determine herbicidal effects expected from the mixtures.

[18] = test system: wheat (TRZAW); test: Test 30 growth chamber, postemergence; format: in vivo, Triticum aestivum
Procedure: as §3

[19] = test system: velvetleaf (ABUTH); test: Test 15 greenhouse, postemergence; settings: 12 DAA
[20] = 17 DAA, Glycerol 7100 g a.i./ha
[21] = 17 DAA, Glycerol 14200 g a.i./ha
[22] = 18 DAA, Glycerol 7100 g a.i./ha
[23] = 18 DAA, Glycerol 14200 g a.i./ha

For `CP(=O)(O)CCC(N)C(=O)O` (stereo not shown) [Glufosinate], the “ZEAMD Obs” value ([1]; 16 DAA) was 0%, the “ZEAMD Obs” value ([1]; 31 DAA) was 0% and the “ZEAMD Obs” value ([2]; 14 DAA) was 0%. The “ZEAMD Obs” value ([2]; 28 DAA) was 0%, the “SETFA Obs” value ([3]; 16 DAA) was 100% and the “SETFA Obs” value ([3]; 31 DAA) was 99%. For the same compound, the “POLPY Obs” value ([4]; 14 DAA) was 98%, the “POLPY Obs” value ([4]; 28 DAA) was 98% and the “DIGSA Obs” value ([5]; 16 DAA) was 99%. For the same compound, the “DIGSA Obs” value ([5]; 31 DAA) was 94%, the “CAPBP Obs” value ([6]; 16 DAA) was 100% and the “CAPBP Obs” value ([6]; 31 DAA) was 100%. The “CHEAL Obs” value ([7]; 14 DAA) was 100%, the “CHEAL Obs” value ([7]; 28 DAA) was 100% and the “SETLU Obs” value ([8]; 14 DAA) was 95%. The “SETLU Obs” value ([8]; 28 DAA) was 63%, the “SETFA Obs” value ([9]; 14 DAA) was 99% and the “SETFA Obs” value ([9]; 28 DAA) was 99%. For the same compound, the “ABUTH Obs” value ([10]; 14 DAA) was 0%, the “ABUTH Obs” value ([10]; 28 DAA) was 0% and the “ABUTH Obs” value ([11]; 16 DAA) was 33%. The “ABUTH Obs” value ([11]; 31 DAA) was 27%, the “CHEAL Obs” value ([12]; 16 DAA) was 87% and the “CHEAL Obs” value ([12]; 31 DAA) was 79%. For the same compound, the “AMARE Obs” value ([13]; 14 DAA) was 100%, the “AMARE Obs” value ([13]; 28 DAA) was 100% and the “AMBEL Obs” value ([14]; 16 DAA) was 100%. For the same compound, the “AMBEL Obs” value ([14]; 31 DAA) was 100%, the “THLAR Obs” value ([15]; 16 DAA) was 100% and the “THLAR Obs” value ([15]; 31 DAA) was 100%. For the same compound, the “SETLU Obs” value ([16]; 16 DAA) was 98% and the “SETLU Obs” value ([16]; 31 DAA) was 90%.
In the case of `OCC(O)CO` [Glycerol], the HORVX Obs [17, 20] is reported as 0%, the HORVX Obs [17, 21] is reported as 0% and the HORVX Obs [17, 22] is reported as 0%. It also gave an HORVX Obs [17, 23] of 0%, a TRZAW Obs [18, 20] of 0% and a TRZAW Obs [18, 21] of 0%. For the same compound, the TRZAW Obs [18, 22] was 0% and the TRZAW Obs [18, 23] was 0%.
With `CCOc1cc(Oc2ccc(C(F)(F)F)cc2Cl)ccc1[N+](=O)[O-]` [Oxyfluorfen] the “Obs response, scale 0 to 100” value ([19]; 15 g a.i./ha) was 43, the “Obs response, scale 0 to 100” value ([19]; 30 g a.i./ha) was 67 and the “Obs response, scale 0 to 100” value ([19]; 60 g a.i./ha) was 81.
For `O=C1[C@H]2C[C@H](F)CN2C(=O)N1c1cc(NS(=O)(=O)CCl)c(Cl)cc1F` [Profluazol], the “Obs response, scale 0 to 100” value ([19]; 2 g a.i./ha) was 91, the “Obs response, scale 0 to 100” value ([19]; 8 g a.i./ha) was 100 and the “Obs response, scale 0 to 100” value ([19]; 15 g a.i./ha) was 100.
